The EC50 is the concentration that produces a half-maximal response.

37 compounds from US11261186B2, “Biaryl derivative as GPR120 agonist” (LG CHEM, LTD., priority 2014, dated 2022) can be followed below.

For the test, the target named is T1, hGPR120 (Homo sapiens, UniProt Q5NUL3).
T1 construct: expressed in transfected cells; host or cells: CHO-K1
T1 sequence (Q5NUL3 1-361): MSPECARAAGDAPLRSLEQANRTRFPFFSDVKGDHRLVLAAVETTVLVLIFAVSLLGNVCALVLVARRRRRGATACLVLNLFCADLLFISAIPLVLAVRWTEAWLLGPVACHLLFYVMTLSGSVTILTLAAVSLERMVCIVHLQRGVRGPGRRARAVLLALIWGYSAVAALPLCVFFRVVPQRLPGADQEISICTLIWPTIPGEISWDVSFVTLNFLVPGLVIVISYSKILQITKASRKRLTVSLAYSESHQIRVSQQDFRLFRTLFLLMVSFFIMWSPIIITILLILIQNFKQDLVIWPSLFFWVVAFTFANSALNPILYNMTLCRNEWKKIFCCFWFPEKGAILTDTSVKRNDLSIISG
In words: Measurement of Activity of GPR120 Agonist (Cell-Based Assay), Calcium 5 dye fluorescence. The following applies: CHO-K1 cells expressing Ga16 and hGPR120. The essentials:
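Gα16/hGPR120 CHO-K1; 18 h plating, 37 °C, 5% CO2; Calcium 5 dye load 1 h; agonist serial dilution, 0.5% DMSO final; fluor Ex485/Em525; response as % of 1% DMSO vehicle.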

The structures appear in SMILES notation.

Turning to `CC(C)COc1cncc(-c2cc(F)c(N3CCC(CC(=O)O)C3)c(F)c2)n1` (stereo not shown) [Example 496, 2-{1-[2,6-difluoro-4-(6-isobutoxy-pyrazin-2-yl)phenyl]pyrrolidin-3-yl}acetic acid], the EC50 was in the range of 200 to 2000 nM.

As to `O=C(O)CC1CCN(c2c(F)cc(-c3cncc(OC4CCCC4)n3)cc2F)C1` (stereo not shown) [Example 497, 2-{1-[2,6-difluoro-4-(6-cyclopentoxy-pyrazin-2-yl)phenyl]pyrrolidin-3-yl}acetic acid], the EC50 fell in the range of 200 to 2000 nM.

On to `CCCCOc1cncc(-c2cc(F)c(N3CCC(CC(=O)O)C3)c(F)c2)n1` (stereo not shown) [Example 498, 2-{1-[2,6-difluoro-4-(6-butoxy-pyrazin-2-yl)phenyl]pyrrolidin-3-yl}acetic acid], for which the EC50 is less than 200 nM.

Take `CCCOc1ccnc(-c2cc(F)c(N3CCC(CC(=O)O)C3)c(F)c2)n1` (stereo not shown) [Example 499, 2-{1-[2,6-difluoro-4-(4-propoxy-pyrimidin-2-yl)phenyl]pyrrolidin-3-yl}acetic acid]: the EC50 was less than 200 nM.

Turning to `CC(C)Oc1ccnc(-c2cc(F)c(N3CCC(CC(=O)O)C3)c(F)c2)n1` (stereo not shown) [Example 500, 2-{1-[2,6-difluoro-4-(4-isopropoxy-pyrimidin-2-yl)phenyl]pyrrolidin-3-yl}acetic acid], the EC50 is less than 200 nM.

On to `CCOc1ccnc(-c2cc(F)c(N3CCC(CC(=O)O)C3)c(F)c2)n1` (stereo not shown) [Example 501, 2-{1-[2,6-difluoro-4-(4-ethoxy-pyrimidin-2-yl)phenyl]pyrrolidin-3-yl}acetic acid], for which the EC50 was less than 200 nM.

Turning to `CC(C)COc1ccnc(-c2cc(F)c(N3CCC(CC(=O)O)C3)c(F)c2)n1` (stereo not shown) [Example 502, 2-{1-[2,6-difluoro-4-(4-isobutoxy-pyrimidin-2-yl)phenyl]pyrrolidin-3-yl}acetic acid], the EC50 was 200 to 2000 nM.

In the case of `CC(C)CNc1cncc(-c2cc(F)c(N3CCC(CC(=O)O)C3)c(F)c2)n1` (stereo not shown) [Example 503, 2-{1-[2,6-difluoro-4-(6-isobutylamino-pyrazin-2-yl)phenyl]pyrrolidin-3-yl}acetic acid], the EC50 lay in the range of 200 to 2000 nM.

As for `O=C(O)CC1CCN(c2c(F)cc(-c3cncc(NC4CCCC4)n3)cc2F)C1` (stereo not shown) [Example 504, 2-{1-[2,6-difluoro-4-(6-cyclopentylamino-pyrazin-2-yl)phenyl]pyrrolidin-3-yl}acetic acid], the EC50 was in the range of 200 to 2000 nM.

`CC(C)Nc1cncc(-c2cc(F)c(N3CCC(CC(=O)O)C3)c(F)c2)n1` (stereo not shown) [Example 505, 2-{1-[2,6-difluoro-4-(6-isopropylamino-pyrazin-2-yl)phenyl]pyrrolidin-3-yl}acetic acid]: the EC50 is 200 to 2000 nM.

Take `CCN(CC)c1cncc(-c2cc(F)c(N3CCC(CC(=O)O)C3)c(F)c2)n1` (stereo not shown) [Example 506, 2-{1-[2,6-difluoro-4-(6-diethylamino-pyrazin-2-yl)phenyl]pyrrolidin-3-yl}acetic acid]: the EC50 is 200 to 2000 nM.

With `O=C(O)CCC1CCc2cc(-c3cncc(OC4CCC4)n3)ccc2S1` (stereo not shown) [Example 507, 3-[6-(6-cyclobutoxy-pyrazin-2-yl)-thiochroman-2-yl]-propionic acid], the EC50 lay in the range of 200 to 2000 nM.

Turning to `O=C(O)CC1CCN(c2c(F)cc(-c3nccc(Oc4ccc(Cl)cc4)n3)cc2F)C1` (stereo not shown) [Example 509, 2-[1-[4-[4-(4-chlorophenoxy)pyrimidin-2-yl]-2,6-difluoro-phenyl]-pyrrolidin-3-yl]acetic acid], the EC50 lay within 200 to 2000 nM.

On to `O=C(O)CC1CCN(c2c(F)cc(-c3nccc(Oc4ccccc4)n3)cc2F)CC1` [Example 510, 2-[1-[4-[4-phenoxy-pyrimidin-2-yl]-2,6-difluoro-phenyl]-4-piperidyl]acetic acid], for which the EC50 was less than 200 nM.

As for `O=C(O)CC1CCN(c2c(F)cc(-c3nccc(Oc4ccc(F)cc4)n3)cc2F)CC1` [Example 511, 2-[1-[4-[4-(4-fluorophenoxy)pyrimidin-2-yl]-2,6-difluoro-phenyl]-4-piperidyl]acetic acid], the EC50 is less than 200 nM.

For the compound `O=C(O)CC1CCN(c2c(F)cc(-c3nccc(Oc4cccnc4)n3)cc2F)CC1` [Example 512], the EC50 was in the range of 200 to 2000 nM.

`O=C(O)CC1CCN(c2c(F)cc(-c3cncc(Oc4ccc(F)cc4)n3)cc2F)CC1` [Example 513, 2-[1-[2,6-difluoro-4-[6-(4-fluorophenoxy)pyrazin-2-yl]phenyl]-4-piperidyl]acetic acid]: the EC50 is less than 200 nM.

`COc1ccc(Oc2ccnc(-c3cc(F)c(N4CCC(CC(=O)O)CC4)c(F)c3)n2)cc1` [Example 514, 2-[1-[4-[4-(4-methoxyphenoxy)pyrimidin-2-yl]-2,6-difluoro-phenyl]-4-piperidyl]acetic acid]: the EC50 lay within 200 to 2000 nM.

Turning to `Cc1cc(Oc2ccc(F)cc2)nc(-c2cc(F)c(N3CCC(CC(=O)O)CC3)c(F)c2)n1` [Example 515, 2-[1-[2,6-difluoro-4-[4-(4-fluorophenoxy)-6-methyl-pyrimidin-2-yl]phenyl]-4-piperidyl]acetic acid], the EC50 fell in the range of 200 to 2000 nM.

Take `Cc1ccc(Oc2ccnc(-c3cc(F)c(N4CCC(CC(=O)O)CC4)c(F)c3)n2)cc1` [Example 516, 2-[1-[4-[4-(p-tolyloxy)pyrimidin-2-yl]-2,6-difluoro-phenyl]-4-piperidyl]acetic acid]: the EC50 is less than 200 nM.

Regarding `O=C(O)CC1CCN(c2c(F)cc(-c3nccc(Oc4ccc(F)c(F)c4)n3)cc2F)CC1` [Example 517, 2-[1-[4-[4-(3,4-difluorophenoxy)pyrimidin-2-yl]-2,6-difluoro-phenyl]-4-piperidyl]acetic acid], the EC50 was less than 200 nM.

Turning to `Cc1cc2cc(Cl)cc(-c3cc(F)c(OCCCC(=O)O)c(F)c3)c2o1` [Example 518, 4-[4-(5-chloro-2-methyl-benzofuran-7-yl)-2,6-difluoro-phenoxy]-butyric acid], the EC50 was less than 200 nM.

Regarding `Cc1cc2cc(Cl)cc(-c3cc(F)c(C(C)CCCC(=O)O)c(F)c3)c2o1` (stereo not shown) [Example 519, 5-[4-(5-chloro-2-methyl-benzofuran-7-yl)-2,6-difluoro-phenyl]-hexanoic acid], the EC50 is 200 to 2000 nM.

With `CN(CCCC(=O)O)c1c(F)cc(-c2cccc(OCC3CCC3)c2)cc1F` [Example 520, 4-[(3′-cyclobutylmethoxy-3,5-difluoro-biphenyl-4-yl)-methyl-amino]-butyric acid], the EC50 fell in the range of 200 to 2000 nM.

`O=C(O)CCCOc1c(F)cc(-c2cccc(OCC3CCC3)c2)cc1F` [Example 521, 4-(3′-cyclobutylmethoxy-3,5-difluoro-biphenyl-4-yloxy)-butyric acid]: the EC50 is less than 200 nM.

For the compound `CN(CCCC(=O)O)c1c(F)cc(-c2cccc(OCC3CCC3)n2)cc1F` [Example 522, 4-{[4-(6-cyclobutylmethoxy-pyridin-2-yl)-2,6-difluoro-phenyl]-methyl-amino}-butyric acid], the EC50 is less than 200 nM.

As to `O=C(O)CCCOc1c(F)cc(-c2cccc(OCC3CCC3)n2)cc1F` [Example 523, 4-[4-(6-cyclobutylmethoxy-pyridin-2-yl)-2,6-difluoro-phenoxy]-butyric acid], the EC50 was less than 200 nM.

In the case of `CN(CCCC(=O)O)c1c(F)cc(-c2cccc(OCC3CC3)c2)cc1F` [Example 524, 4-[(3′-cyclopropylmethoxy-3,5-difluoro-biphenyl-4-yl)-methyl-amino]-butyric acid], the EC50 was less than 200 nM.

Consider `CN(CCCC(=O)O)c1c(F)cc(-c2cccc(OC3CCCC3)c2)cc1F` [Example 525, 4-[(3′-cyclopentyloxy-3,5-difluoro-biphenyl-4-yl)-methyl-amino]-butyric acid], for which the EC50 was less than 200 nM.

`COc1ccc(-c2cc(F)c(OCCCC(=O)O)c(F)c2)cc1OCC1CC1` [Example 526, 4-(3′-cyclopropylmethoxy-3,5-difluoro-4′-methoxy-biphenyl-4-yloxy)-butyric acid]: the EC50 was less than 200 nM.

As to `O=C(O)CCCOc1c(F)cc(-c2ccc(F)c(OCC3CC3)c2)cc1F` [Example 527, 4-(3′-cyclopropylmethoxy-3,5,4′-trifluoro-biphenyl-4-yloxy)-butyric acid], the EC50 was less than 200 nM.

Take `O=C(O)CCCOc1c(F)cc(-c2cc(F)cc(OC3CCC3)c2)cc1F` [Example 528, 4-(5′-cyclobutoxy-3,5,3′-trifluoro-biphenyl-4-yloxy)-butyric acid]: the EC50 was less than 200 nM.

`Cc1ccc(OCC2CCC2)cc1-c1cc(F)c(N(C)CCCC(=O)O)c(F)c1` [Example 529, 4-[(5′-cyclobutylmethoxy-3,5-difluoro-2′-methyl-biphenyl-4-yl)-methyl-amino]-butyric acid]: the EC50 was 200 to 2000 nM.

For `Cc1ccc(OCC2CCC2)cc1-c1cc(F)c(OCCCC(=O)O)c(F)c1` [Example 530, 4-(5′-cyclobutylmethoxy-3,5-difluoro-2′-methyl-biphenyl-4-yloxy)-butyric acid], the EC50 was less than 200 nM.

For `CN(CCCC(=O)O)c1c(F)cc(-c2ccc(Cl)c(OC3CCC3)n2)cc1F` [Example 531, 4-{[4-(5-chloro-6-cyclobutoxy-pyridin-2-yl)-2,6-difluoro-phenyl]-methyl-amino}-butyric acid], the EC50 is 200 to 2000 nM.

Consider `Cc1ccc(-c2cc(F)c(OCCCC(=O)O)c(F)c2)cc1OCC1CC1` [Example 532, 4-(3′-cyclopropylmethoxy-3,5-difluoro-4′-methyl-biphenyl-4-yloxy)-butyric acid], for which the EC50 was less than 200 nM.

Regarding `O=C(O)CCCOc1c(F)cc(-c2ccc(Cl)c(OC3CCC3)n2)cc1F` [Example 533, 4-[4-(5-chloro-6-cyclobutoxy-pyridin-2-yl)-2,6-difluoro-phenoxy]-butyric acid], the EC50 was 200 to 2000 nM.
